Data on 10 molecules can be found in ChEMBL document CHEMBL5303304, “EUbOPEN Chemogenomics Library - IncuCyte” (2023).

Values joined by “and” are separate entries in the source; they are usually repeats but may differ in a detail not shown here. Equal entries are not always repeated.

Format in all cases: toxicity, cell-based
The subject of data set [1] is HEK-293T. Description: Incucyte cell viability with HEK293T. To be noted: human, 10 µM, compound concentration 10 uM.
The test system of data set [2] is Fibroblast. Description: Incucyte cell viability with human fibroblast. Particulars: 10 µM, compound concentration 10 uM.
Data set [3] relates to U2OS. Description: Incucyte cell viability with U2OS. Particulars: human, 10 µM, compound concentration 10 uM.
Also: unitless GR value; below 1 slowed growth and below 0 cell loss.

Turning to `CCOC(=O)Nc1ccc2c(c1)N(C(=O)CN(CC)CC)c1ccccc1CC2`, the “Growth Rate” value in data set [1] (0 h, replicate number 1) stood at 0.65; in data set [1] (6 h, replicate number 2) it was 0.81; in data set [1] (12 h, replicate number 2), 0.9; in data set [1] (18 h, replicate number 2) it was 0.97; in data set [1] (24 h, replicate number 2), 0.92; in data set [2] (0 h, replicate number 2) it was 0.9. Also, the “Growth Rate” value in data set [2] (6 h, replicate number 1) amounted to 0.29; in data set [2] (6 h, replicate number 2), 0.43; in data set [2] (12 h, replicate number 1), 0.64; in data set [2] (12 h, replicate number 2) it was 0.75; in data set [2] (18 h, replicate number 1) it was 0.61; in data set [2] (18 h, replicate number 2), 0.53. Also, the “Growth Rate” value amounted to 0.76 in data set [2] (24 h, replicate number 1); 0.69 in data set [2] (24 h, replicate number 2); 0.1 in data set [3] (0 h, replicate number 1); 0.94 in data set [3] (6 h, replicate number 1); 0.75 in data set [3] (12 h, replicate number 1); 0.89 in data set [3] (24 h, replicate number 1).
With `COc1cc(C(=O)O)ncc1C#Cc1ccccc1NS(=O)(=O)c1cccc2c(N(C)C)ccnc12` [MSC-0516], the “Growth Rate” value in data set [1] (0 h, replicate number 1) was -0.31; in data set [1] (0 h, replicate number 2), -0.98; in data set [2] (0 h, replicate number 1) it was -1; in data set [2] (6 h, replicate number 2) it was 0.44; in data set [2] (12 h, replicate number 2), 0.77; in data set [2] (18 h, replicate number 2), 0.99. Further, the “Growth Rate” value was determined as 0.93 in data set [2] (24 h, replicate number 2); 0.61 in data set [3] (0 h, replicate number 2); 0.68 in data set [3] (6 h, replicate number 1); 0.86 in data set [3] (6 h, replicate number 2); 0.92 in data set [3] (12 h, replicate number 1); 0.75 in data set [3] (12 h, replicate number 2). Also, the “Growth Rate” value in data set [3] (18 h, replicate number 1) amounted to 0.8; in data set [3] (18 h, replicate number 2), 0.91; in data set [3] (24 h, replicate number 1) it was 0.89; in data set [3] (24 h, replicate number 2), 0.9.
Turning to `CC(C)NC(=O)[C@H]1CCC[C@H]1Nc1nc(Nc2ccc(C(=O)N(C)C3CCN(C)CC3)cc2)ncc1Cl`, the “Growth Rate” value in data set [1] (0 h, replicate number 2) is -1; in data set [1] (12 h, replicate number 1) it was 0.62 and 0.41; in data set [1] (18 h, replicate number 1), 0.71 and 0.79; in data set [1] (18 h, replicate number 2), 0.56; in data set [1] (24 h, replicate number 1) it was 0.85; in data set [1] (24 h, replicate number 2) it was 0.69 and 0.88. The “Growth Rate” value in data set [2] (0 h, replicate number 1) was -1; in data set [2] (6 h, replicate number 2), -0.29; in data set [2] (12 h, replicate number 1) it was 0.11 and 0.25; in data set [2] (18 h, replicate number 1) it was 0.31 and 0.66; in data set [2] (18 h, replicate number 2), 0.24 and 0.59; in data set [2] (24 h, replicate number 1) it was 0.54. The “Growth Rate” value in data set [2] (24 h, replicate number 2) is 0.47; in data set [3] (0 h, replicate number 1) it was 0.59; in data set [3] (0 h, replicate number 2), 0.92; in data set [3] (6 h, replicate number 2) it was 0.48; in data set [3] (12 h, replicate number 2), 0.53 and 0.52; in data set [3] (18 h, replicate number 1), 0.54 and 0.76. Also, the “Growth Rate” value in data set [3] (18 h, replicate number 2) was 0.6 and 0.8; in data set [3] (24 h, replicate number 1) it was 0.63; in data set [3] (24 h, replicate number 2) it was 0.61 and 0.9.
Turning to `Fc1ccc(-c2nc(-c3ccc4ccccc4c3F)[nH]c2-c2ccncc2)cc1`, the “Growth Rate” value was 0.81 in data set [1] (6 h, replicate number 1); 0.42 in data set [1] (6 h, replicate number 2); 0.77 in data set [1] (12 h, replicate number 1); 0.57 in data set [1] (12 h, replicate number 2); 0.7 in data set [1] (18 h, replicate number 1); 0.41 in data set [1] (18 h, replicate number 2). For the same molecule, the “Growth Rate” value in data set [1] (24 h, replicate number 1) was 0.67; in data set [1] (24 h, replicate number 2) it was 0.47; in data set [2] (6 h, replicate number 1), 0.58; in data set [2] (6 h, replicate number 2), -0.01; in data set [2] (12 h, replicate number 1) it was 0.47; in data set [2] (12 h, replicate number 2), 0.65. In addition, the “Growth Rate” value in data set [2] (18 h, replicate number 1) was 0.61; in data set [2] (18 h, replicate number 2), 0.8; in data set [2] (24 h, replicate number 1), 0.76; in data set [3] (0 h, replicate number 1), -1; in data set [3] (24 h, replicate number 2), 0.94.
On to `Cc1c(C(=O)NCCCN(C)C)sc2ncnc(Nc3ccc(F)cc3OC(C)CF)c12` (stereo unspecified), for which the “Growth Rate” value in data set [1] (6 h, replicate number 1) is given as -0.52; in data set [1] (6 h, replicate number 2) it was 0.2; in data set [1] (12 h, replicate number 1), -0.29; in data set [1] (12 h, replicate number 2), 0.14; in data set [1] (18 h, replicate number 1), -0.13; in data set [1] (18 h, replicate number 2), 0.14. Moreover, the “Growth Rate” value is listed as 0.07 in data set [1] (24 h, replicate number 1); 0.16 in data set [1] (24 h, replicate number 2); -1 in data set [2] (6 h, replicate number 1); 0.93 in data set [2] (18 h, replicate number 2); 0.55 in data set [2] (24 h, replicate number 2); 0.69 in data set [3] (0 h, replicate number 2).
With `CC(=O)N1CCC(c2ccc(C(=O)NC3=NCCN3)cc2C(F)(F)F)CC1` [BI 0054], the “Growth Rate” value is given as -0.32 in data set [1] (0 h, replicate number 2); 0.29 in data set [1] (6 h, replicate number 1); 0.6 in data set [1] (12 h, replicate number 1); 0.87 in data set [1] (18 h, replicate number 1); 0.81 in data set [1] (24 h, replicate number 1); -1 in data set [2] (0 h, replicate number 1). The “Growth Rate” value in data set [2] (12 h, replicate number 2) is 0.87; in data set [2] (18 h, replicate number 2), 0.82; in data set [2] (24 h, replicate number 2), 0.88; in data set [3] (0 h, replicate number 1), 0.95; in data set [3] (6 h, replicate number 1) it was 0.82; in data set [3] (12 h, replicate number 1), 0.97. Further, the “Growth Rate” value in data set [3] (18 h, replicate number 2) is listed as 0.92.
For `COc1cc(C(=O)N2CC[C@@H](O)[C@@H](N)C2)cc2nc(-c3cc4ccccc4n3CC3CC3)n(C)c12.Cl`, the “Growth Rate” value in data set [1] (6 h, replicate number 1) is given as 0.46; in data set [1] (6 h, replicate number 2), -0.12; in data set [1] (12 h, replicate number 1) it was 0.73; in data set [1] (12 h, replicate number 2), 0.39; in data set [1] (18 h, replicate number 1), 0.82; in data set [1] (18 h, replicate number 2) it was 0.3. For the same molecule, the “Growth Rate” value is 0.58 in data set [1] (24 h, replicate number 1); 0.27 in data set [1] (24 h, replicate number 2); -1 in data set [2] (6 h, replicate number 1); -0.02 in data set [2] (6 h, replicate number 2); 0.16 in data set [2] (12 h, replicate number 2); 0.2 in data set [2] (18 h, replicate number 2). Further, the “Growth Rate” value in data set [2] (24 h, replicate number 2) is 0.27; in data set [3] (0 h, replicate number 1), -0.93.
`O=C(Nc1ccccc1Br)N[C@@H]1CCN(c2ccc(C(F)(F)F)cn2)C1` [SB-705498]: the “Growth Rate” value is recorded as -0.43 in data set [1] (6 h, replicate number 2); 0.76 in data set [1] (12 h, replicate number 1); -0.08 in data set [1] (12 h, replicate number 2); 0.32 in data set [1] (18 h, replicate number 1); 0.1 in data set [1] (18 h, replicate number 2); 0.31 in data set [1] (24 h, replicate number 1). The “Growth Rate” value in data set [1] (24 h, replicate number 2) is recorded as 0.07; in data set [2] (0 h, replicate number 1) it was 0.33; in data set [2] (0 h, replicate number 2), 0.7; in data set [2] (6 h, replicate number 1) it was 0.4; in data set [2] (6 h, replicate number 2), -0.3; in data set [2] (12 h, replicate number 2), 0.55. Besides, the “Growth Rate” value was 0.51 in data set [2] (18 h, replicate number 2); 0.34 in data set [2] (24 h, replicate number 1); 0.58 in data set [2] (24 h, replicate number 2); -0.73 in data set [3] (0 h, replicate number 1); -0.91 in data set [3] (0 h, replicate number 2); 0.99 in data set [3] (6 h, replicate number 1). For the same molecule, the “Growth Rate” value in data set [3] (12 h, replicate number 1) is reported as 0.83.
`CN1CCN(c2ccnc(NCCc3ccccc3)n2)CC1` [TP-040n]: the “Growth Rate” value in data set [1] (6 h, replicate number 1) stood at 0.2; in data set [1] (6 h, replicate number 2), 0.09; in data set [1] (12 h, replicate number 1), 0.39; in data set [1] (12 h, replicate number 2), 0.3; in data set [1] (18 h, replicate number 1), 0.42; in data set [1] (18 h, replicate number 2), 0.35. In addition, the “Growth Rate” value was 0.41 in data set [1] (24 h, replicate number 1); 0.4 in data set [1] (24 h, replicate number 2); -1 in data set [2] (0 h, replicate number 1); 0.8 in data set [2] (12 h, replicate number 1); 0.9 in data set [2] (12 h, replicate number 2); 0.74 in data set [2] (18 h, replicate number 1). In addition, the “Growth Rate” value in data set [2] (18 h, replicate number 2) is given as 0.63; in data set [2] (24 h, replicate number 1), 0.58; in data set [2] (24 h, replicate number 2), 0.53; in data set [3] (6 h, replicate number 2) it was -0.72; in data set [3] (12 h, replicate number 1), 1; in data set [3] (18 h, replicate number 1), 0.94. The “Growth Rate” value in data set [3] (18 h, replicate number 2) was 0.96; in data set [3] (24 h, replicate number 2), 0.87.
`C[C@]12CC[C@@H]3c4ccc(O)cc4CC[C@H]3[C@@H]1C[C@H]1OC(=O)C[C@]12O`: the “Growth Rate” value turned out to be 0.27 in data set [1] (6 h, replicate number 1); 0.37 in data set [1] (12 h, replicate number 1); 0.34 in data set [1] (12 h, replicate number 2); 0.36 in data set [1] (18 h, replicate number 1); 0.67 in data set [1] (18 h, replicate number 2); 0.53 in data set [1] (24 h, replicate number 1). The “Growth Rate” value in data set [1] (24 h, replicate number 2) is listed as 0.86; in data set [2] (0 h, replicate number 1), -1; in data set [2] (6 h, replicate number 1), 0.09; in data set [2] (6 h, replicate number 2), -0.98; in data set [2] (12 h, replicate number 1), 0.52; in data set [2] (12 h, replicate number 2), -0.36. Further, the “Growth Rate” value was 0.55 in data set [2] (18 h, replicate number 1); 0.13 in data set [2] (18 h, replicate number 2); 0.77 in data set [2] (24 h, replicate number 1); 0.48 in data set [2] (24 h, replicate number 2); 0.82 in data set [3] (0 h, replicate number 1); 0.2 in data set [3] (0 h, replicate number 2). For the same molecule, the “Growth Rate” value is 0.43 in data set [3] (6 h, replicate number 1); -0.19 in data set [3] (6 h, replicate number 2); 0.21 in data set [3] (12 h, replicate number 1); 0.26 in data set [3] (12 h, replicate number 2); 0.38 in data set [3] (18 h, replicate number 1); 0.65 in data set [3] (18 h, replicate number 2). Besides, the “Growth Rate” value in data set [3] (24 h, replicate number 1) came out at 0.6; in data set [3] (24 h, replicate number 2), 0.72.
